Test results taken from paper PMC12494831, “Discovery of new pyridine 3-carboxylic acid-based pharmacophores as dual anti-inflammatory and anti-hyperglycemic agents” (Scientific Reports, 2025).

Assays:
α-amylase (EC.3.2.1.1) = biological target: T1, α-amylase (EC.3.2.1.1) (Homo sapiens, UniProt P04746); assay: In vitro α-amylase inhibition (starch/DNS, 540 nm); format: biochemical; settings: for IC50: test concentrations 2-10 µg, read-out: α-Amylase IC50±SD (converted)
T1 sequence (P04746 16-511): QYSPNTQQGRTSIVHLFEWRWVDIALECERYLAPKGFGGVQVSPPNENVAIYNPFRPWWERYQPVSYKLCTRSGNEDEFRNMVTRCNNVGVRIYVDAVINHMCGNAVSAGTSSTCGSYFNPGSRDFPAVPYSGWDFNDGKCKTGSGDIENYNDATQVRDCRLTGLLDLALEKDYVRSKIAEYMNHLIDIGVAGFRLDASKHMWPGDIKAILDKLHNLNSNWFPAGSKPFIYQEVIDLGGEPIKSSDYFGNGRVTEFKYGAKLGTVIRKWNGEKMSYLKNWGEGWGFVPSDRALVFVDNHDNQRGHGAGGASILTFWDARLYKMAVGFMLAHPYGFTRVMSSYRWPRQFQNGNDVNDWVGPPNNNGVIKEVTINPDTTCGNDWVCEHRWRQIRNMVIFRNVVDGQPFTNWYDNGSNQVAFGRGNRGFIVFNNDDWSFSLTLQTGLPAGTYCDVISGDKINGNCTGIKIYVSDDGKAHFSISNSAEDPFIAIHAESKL
Experimental: α-Amylase enzyme and other chemical reagents are used for enzyme inhibitory activity. The characterized compounds are diluted in an analytical grad solvent (DMSO) system at 1 mg/mL solution concentration. The activity reaction of the synthesized analogues on the enzyme was treated at final concentrations of 2 to 10 µg. In the interaction between enzyme and compounds, 10 min incubation was maintained before the inhibitory activity started. The enzyme-receptor inhibition efficiency was calculated and compared with the positive control.
Sodium phosphate buffer 0.2 mM (pH 6.9 with 6 × 10^− 4 M NaCl) in 500 µL enzyme solution (0.5 mg/mL) was taken and incubated with test samples (2–10 µg/mL) at room temperature for 10 min. A starch (1%) solution of 500 µL with phosphate buffer was added to all test inhibitor samples; further, the tubes were incubated for 10 min at 28 °C. The reaction test tubes were incubated for another 5 min in the water bath (100 °C) after the addition of the color reagent dinitro salicylic acid and cooled at room temperature until reached. Finally, 10 mL of distilled water was mixed with each test tube, and the colored mixture was measured at a fixed wavelength of 540 nm. The absorbance without sample solution (blank) and control (buffer and standard drug sample) was measured at 540 nm. The α-amylase inhibition efficiency was validated using the following equation:2 [drawing 2]

[1] = DPPH radical scavenging (517 nm); settings: for IC50: read-out: DPPH IC50±SD
[2] = ABTS cation radical scavenging (734 nm); settings: for IC50: read-out: ABTS IC50±SD
human RBC = assay: Anti-inflammatory activity: hypotonic solution-induced human RBC hemolysis (560 nm); format: cell-based; settings: for IC50: induced human RBC hemolysis, read-out: Inflammatory IC50±SD
MTT cell viability assay = format: cell-based; settings: mouse, RAW 264.7 macrophage cells, control 100
Experimental: (§1) The toxicity of the molecule was investigated by the MTT cell viability assay employing RAW macrophage cells. For this study, two lead compounds, 2b and 2e, were screened based on the in vitro results. […] (The OD values in Tables S6 and S7)
(§2) The MTT ((3-(4,5-Dimethylthiazol-2-yl)-2,5-Diphenyltetrazolium Bromide)) assay was employed to determine viability for the synthesized potent compounds 2b and 2e; the cell viability results portray the compounds’ cytotoxicity. The assay was conducted on RAW macrophage cells (RAW 264.7) with various dilutions of 2b and 2e (10, 20, 30, 40, and 50 µM). The results were confirmed with a control.

[3] = system: RAW macrophage cells (RAW 264.7); assay: MTT cell viability assay; format: cell-based; settings: for MTT assay Average OD: control average OD 0.924; for Toxicity, outcome of the MTT cell viability assay (in words): RAW macrophage cells
Experimental: as §1, §2

In the case of `COC(=O)/C=C/c1ccc(OC(=O)c2cccnc2)c(OC)c1` [Compound 2b, 2-Methoxy-4-(3-methoxy-3-oxoprop-1-en-1-yl) phenyl nicotinate], the “α-Amylase Inhibition %” value (α-amylase (EC.3.2.1.1); 2 µg) is reported as 80.52%, the “α-Amylase Inhibition %” value (α-amylase (EC.3.2.1.1); 4 µg) is reported as 80.38% and the “α-Amylase Inhibition %” value (α-amylase (EC.3.2.1.1); 6 µg) is reported as 77.01%. For the same compound, the “α-Amylase Inhibition %” value (α-amylase (EC.3.2.1.1); 8 µg) was 69.1%, the “α-Amylase Inhibition %” value (α-amylase (EC.3.2.1.1); 10 µg) was 54.9% and the IC50 (α-amylase (EC.3.2.1.1)) was 4.37 µM. For the same compound, the “DPPH Inhibition %” value ([1]; 20 µM) was 66.2%, the “DPPH Inhibition %” value ([1]; 40 µM) was 86.32% and the “DPPH Inhibition %” value ([1]; 60 µM) was 87.6%. For the same compound, the “DPPH Inhibition %” value ([1]; 80 µM) was 88%, the “DPPH Inhibition %” value ([1]; 100 µM) was 88.4% and the IC50 [1] was 15.63 ± 0.13 µM. For the same compound, the “ABTS Inhibition %” value ([2]; 20 µM) was 59.6%, the “ABTS Inhibition %” value ([2]; 40 µM) was 60.8% and the “ABTS Inhibition %” value ([2]; 60 µM) was 60.9%. The “ABTS Inhibition %” value ([2]; 80 µM) was 61%, the “ABTS Inhibition %” value ([2]; 100 µM) was 61.4% and the IC50 [2] was 19.9 ± 0.25 µM. It also gave an inhibition at 20 µM (human RBC) of 60%, an inhibition at 40 µM (human RBC) of 69.9% and an inhibition at 60 µM (human RBC) of 71%. The inhibition at 80 µM (human RBC) was 76%, the inhibition at 100 µM (human RBC) was 85.8% and the IC50 (human RBC) was 18.41 ± 0.13 µM. For the same compound, the viability at 10 µM (MTT cell viability assay) was 85.4%, the viability at 20 µM (MTT cell viability assay) was 77.4% and the viability at 30 µM (MTT cell viability assay) was 68.5%. The viability at 40 µM (MTT cell viability assay) was 58.8%, the viability at 50 µM (MTT cell viability assay) was 45.3% and the “MTT assay Triplicate values OD1” value ([3]; 10 µM) was 0.790. For the same compound, the “MTT assay Triplicate values OD2” value ([3]; 10 µM) was 0.792, the “MTT assay Triplicate values OD3” value ([3]; 10 µM) was 0.785 and the “MTT assay Average OD” value ([3]; 10 µM) was 0.789. The “MTT assay Triplicate values OD1” value ([3]; 20 µM) was 0.719, the “MTT assay Triplicate values OD2” value ([3]; 20 µM) was 0.712 and the “MTT assay Triplicate values OD3” value ([3]; 20 µM) was 0.711. The “MTT assay Average OD” value ([3]; 20 µM) was 0.714, the “MTT assay Triplicate values OD1” value ([3]; 30 µM) was 0.634 and the “MTT assay Triplicate values OD2” value ([3]; 30 µM) was 0.629. For the same compound, the “MTT assay Triplicate values OD3” value ([3]; 30 µM) was 0.636, the “MTT assay Average OD” value ([3]; 30 µM) was 0.633 and the “MTT assay Triplicate values OD1” value ([3]; 40 µM) was 0.542. For the same compound, the “MTT assay Triplicate values OD2” value ([3]; 40 µM) was 0.541, the “MTT assay Triplicate values OD3” value ([3]; 40 µM) was 0.546 and the “MTT assay Average OD” value ([3]; 40 µM) was 0.543. The “MTT assay Triplicate values OD1” value ([3]; 50 µM) was 0.418, the “MTT assay Triplicate values OD2” value ([3]; 50 µM) was 0.416 and the “MTT assay Triplicate values OD3” value ([3]; 50 µM) was 0.423. For the same compound, the “MTT assay Average OD” value ([3]; 50 µM) was 0.419 and the “Toxicity, outcome of the MTT cell viability assay (in words)” value [3] was “viable for the cell line”.
With `O=C(NCc1ccc2c(c1)OCO2)c1cccnc1` [Compound 2e, N-(Benzo[1,3]dioxol-5-ylmethyl)nicotinamide] the “α-Amylase Inhibition %” value (α-amylase (EC.3.2.1.1); 2 µg) was 86.09%, the “α-Amylase Inhibition %” value (α-amylase (EC.3.2.1.1); 4 µg) was 77.3% and the “α-Amylase Inhibition %” value (α-amylase (EC.3.2.1.1); 6 µg) was 74.08%. The “α-Amylase Inhibition %” value (α-amylase (EC.3.2.1.1); 8 µg) was 72.76%, the “α-Amylase Inhibition %” value (α-amylase (EC.3.2.1.1); 10 µg) was 56.22% and the IC50 (α-amylase (EC.3.2.1.1)) was 5.17 µM. The “DPPH Inhibition %” value ([1]; 20 µM) was 29.2%, the “DPPH Inhibition %” value ([1]; 40 µM) was 47.1% and the “DPPH Inhibition %” value ([1]; 60 µM) was 49.2%. For the same compound, the “DPPH Inhibition %” value ([1]; 80 µM) was 55.8%, the “DPPH Inhibition %” value ([1]; 100 µM) was 59% and the IC50 [1] was 52.09 ± 0.15 µM. The “ABTS Inhibition %” value ([2]; 20 µM) was 23.4%, the “ABTS Inhibition %” value ([2]; 40 µM) was 27.9% and the “ABTS Inhibition %” value ([2]; 60 µM) was 29.3%. The “ABTS Inhibition %” value ([2]; 80 µM) was 35.4%, the “ABTS Inhibition %” value ([2]; 100 µM) was 43% and the IC50 [2] was 45.63 ± 0.19 µM. For the same compound, the inhibition at 20 µM (human RBC) was 33.6%, the inhibition at 40 µM (human RBC) was 42.8% and the inhibition at 60 µM (human RBC) was 43%. The inhibition at 80 µM (human RBC) was 48.2%, the inhibition at 100 µM (human RBC) was 60% and the IC50 (human RBC) was 14.1 ± 0.15 µM. It also gave a viability at 10 µM (MTT cell viability assay) of 89.1%, a viability at 20 µM (MTT cell viability assay) of 81.7% and a viability at 30 µM (MTT cell viability assay) of 74.8%. The viability at 40 µM (MTT cell viability assay) was 65.1%, the viability at 50 µM (MTT cell viability assay) was 56.4% and the “Toxicity, outcome of the MTT cell viability assay (in words)” value [3] was “viable for the cell line”.
